{"source": "patent US20230183193A1", "about": "“4-DIFLUOROMETHYL BENZOYL AMIDES WITH HERBICIDAL ACTION” (BAYER CROPSCIENCE AKTIENGESELLSCHAFT, priority 2017, published 2023)", "key": {"[1]": {"system": "ECHCG", "experiment": "Post-emergence herbicidal action, ECHCG", "type": "in vivo", "conditions": "80 g/ha, Table C", "in_short": "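Weed and crop plants grown in sandy loam in the greenhouse, treated at the one-leaf stage 2–3 weeks after sowing. Damage scored visually after about 3 weeks vs untreated controls (0% = control, 100% = dead).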"}, "[2]": {"system": "Setaria viridis", "experiment": "Post-emergence herbicidal action, SETVI", "type": "in vivo", "conditions": "80 g/ha, Table C", "in_short": "(§1)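 Herbicidal effect is rated visually as percent versus untreated plants (100% = dead, 0% = like control) about 3 weeks after spraying. Plants were sown in sandy loam in the greenhouse and sprayed on green parts at the one-leaf stage, 2 to 3 weeks post-sowing.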"}, "[3]": {"system": "Alopecurus myosuroides", "experiment": "Pre-emergence herbicidal action, ALOMY", "type": "in vivo", "in_short": "(§2)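 Weed seeds were laid out in sandy loam and covered with soil, then the soil surface was treated with an aqueous suspension or emulsion of the formulated compound containing 0.2% wetting agent. Pots stayed in the greenhouse for 3 weeks before damage was rated visually against untreated plants.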"}, "[4]": {"system": "Setaria viridis", "experiment": "Pre-emergence herbicidal action, SETVI", "type": "in vivo", "in_short": "as §2"}, "[5]": {"system": "Amaranthus retroflexus", "experiment": "Post-emergence herbicidal action, AMARE", "type": "in vivo", "conditions": "80 g/ha, Table D", "in_short": "as §1"}, "[6]": {"system": "Stellaria media", "experiment": "Pre-emergence herbicidal action, STEME", "type": "in vivo", "conditions": "dosage 320 g/ha, scored visually after 3 weeks vs untreated controls", "in_short": "as §2"}, "[7]": {"system": "Amaranthus retroflexus", "experiment": "Pre-emergence herbicidal action, AMARE", "type": "in vivo", "conditions": "dosage 320 g/ha, scored visually after 3 weeks vs untreated controls", "in_short": "as §2"}, "[8]": {"system": "Avena fatua", "experiment": "Post-emergence herbicidal action, AVEFA", "type": "in vivo", "conditions": "80 g/ha, Table C", "in_short": "as §1"}, "[9]": {"system": "Viola tricolor", "experiment": "Post-emergence herbicidal action, VIOTR", "type": "in vivo", "conditions": "80 g/ha, Table D", "in_short": "as §1"}, "[10]": {"system": "Alopecurus myosuroides", "experiment": "Post-emergence herbicidal action, ALOMY", "type": "in vivo", "conditions": "80 g/ha, Table C", "in_short": "as §1"}, "[11]": {"system": "Stellaria media", "experiment": "Post-emergence herbicidal action, STEME", "type": "in vivo", "conditions": "80 g/ha, Table D", "in_short": "as §1"}, "[12]": {"system": "Pharbitis purpureum", "experiment": "Post-emergence herbicidal action, PHBPU", "type": "in vivo", "conditions": "80 g/ha, Table D", "in_short": "as §1"}, "[13]": {"system": "Matricaria inodora", "experiment": "Pre-emergence herbicidal action, MATIN", "type": "in vivo", "conditions": "for Herbicidal efficacy against MATIN: Table K", "in_short": "as §2"}, "[14]": {"system": "Cyperus serotinus", "experiment": "Pre-emergence herbicidal action, CYPES", "type": "in vivo", "in_short": "as §2"}, "[15]": {"system": "Viola tricolor", "experiment": "Pre-emergence herbicidal action, VIOTR", "type": "in vivo", "conditions": "for Herbicidal efficacy against VIOTR: Table K", "in_short": "as §2"}, "[16]": {"system": "Polygonum convolvulus", "experiment": "Pre-emergence herbicidal action, POLCO", "type": "in vivo", "conditions": "Table K", "excerpt": "1. Pre-Emergence Herbicidal Action Against Harmful Plants Seeds of monocotyledonous and dicotyledonous weed plants and crop plants are laid out in sandy loam soil in wood-fiber pots and covered with soil. The compounds of the invention, formulated in the form of wettable powders (WP) or as emulsion concentrates (EC), are then applied to the surface of the covering soil in the form of an aqueous suspension or emulsion at a water application rate equating to […], with addition of 0.2% wetting agent. After the treatment, the pots are placed in a greenhouse and kept under good growth conditions for the trial plants. The damage to the test plants is scored visually after a test period of 3 weeks by comparison with untreated controls (herbicidal activity in percent (%): 100% activity=the plants have died, 0% activity=like control plants).\nFor comparison, the herbicidal activity of numerous compounds according to the invention was tested with the structurally closest compounds known from the documents WO 2011/035874, WO 2012/028579 and WO 2012/126932, by the pre- and post-emergence method."}, "[17]": {"system": "ECHCG", "experiment": "Pre-emergence herbicidal action, ECHCG", "type": "in vivo, Echinochloa crus-galli"}, "[18]": {"system": "Abutilon theophrasti", "experiment": "Pre-emergence herbicidal action, ABUTH", "type": "in vivo", "conditions": "for Herbicidal efficacy against ABUTH: Table K", "in_short": "as §2"}, "[19]": {"system": "Abutilon theophrasti", "experiment": "Post-emergence herbicidal action, ABUTH", "type": "in vivo", "conditions": "80 g/ha, Table D", "in_short": "as §1"}, "[20]": {"system": "Avena fatua", "experiment": "Pre-emergence herbicidal action, AVEFA", "type": "in vivo", "in_short": "as §2"}, "[21]": {"conditions": "dosage 320 g/ha, scored visually after 3 weeks vs untreated controls"}}, "data": [{"compound": "Cn1nnnc1NC(=O)c1ccc(C(F)F)c([S+](C)[O-])c1Cl", "note": "(stereo not shown) [Example 1-50]", "values": [{"measurement": "Herbicidal activity ECHCG", "setting": "[1]", "result": 100, "unit": "%"}, {"measurement": "herbicidal activity SETVI", "setting": "[2]", "result": 100, "unit": "%"}, {"measurement": "Herbicidal efficacy against ALOMY", "setting": "[3]; 20 g/ha", "result": 90}, {"measurement": "Herbicidal efficacy against ALOMY", "setting": "[3]; 80 g/ha", "result": 100}, {"measurement": "Herbicidal efficacy against ALOMY", "setting": "[3]; 320 g/ha", "result": 100}, {"measurement": "herbicidal activity ALOMY", "setting": "[3]; [21]", "result": 100, "unit": "%"}, {"measurement": "Herbicidal efficacy against SETVI", "setting": "[4]; 20 g/ha", "result": 100}, {"measurement": "Herbicidal efficacy against SETVI", "setting": "[4]; 80 g/ha", "result": 100}, {"measurement": "Herbicidal efficacy against SETVI", "setting": "[4]; 320 g/ha", "result": 100}, {"measurement": "herbicidal activity SETVI", "setting": "[4]; [21]", "result": 100, "unit": "%"}, {"measurement": "herbicidal activity AMARE", "setting": "[5]", "result": 100, "unit": "%"}, {"measurement": "Herbicidal activity STEME", "setting": "[6]", "result": 90, "unit": "%"}, {"measurement": "herbicidal activity AMARE", "setting": "[7]", "result": 100, "unit": "%"}, {"measurement": "herbicidal activity AVEFA", "setting": "[8]", "result": 100, "unit": "%"}, {"measurement": "herbicidal activity VIOTR", "setting": "[9]", "result": 100, "unit": "%"}, {"measurement": "herbicidal activity ALOMY", "setting": "[10]", "result": 100, "unit": "%"}, {"measurement": "Herbicidal activity STEME", "setting": "[11]", "result": 100, "unit": "%"}, {"measurement": "Herbicidal activity PHBPU", "setting": "[12]", "result": 100, "unit": "%"}, {"measurement": "Herbicidal efficacy against MATIN", "setting": "[13]; dosage 20 g/ha", "result": 90}, {"measurement": "Herbicidal efficacy against MATIN", "setting": "[13]; dosage 80 g/ha", "result": 100}, {"measurement": "Herbicidal efficacy against MATIN", "setting": "[13]; dosage 320 g/ha", "result": 100}, {"measurement": "herbicidal activity MATIN", "setting": "[13]; [21]", "result": 100, "unit": "%"}, {"measurement": "Herbicidal efficacy against CYPES", "setting": "[14]; 20 g/ha", "result": 70}, {"measurement": "Herbicidal efficacy against CYPES", "setting": "[14]; 80 g/ha", "result": 100}, {"measurement": "Herbicidal efficacy against CYPES", "setting": "[14]; 320 g/ha", "result": 100}, {"measurement": "herbicidal activity CYPES", "setting": "[14]; [21]", "result": 100, "unit": "%"}, {"measurement": "Herbicidal efficacy against VIOTR", "setting": "[15]; dosage 20 g/ha", "result": 100}, {"measurement": "Herbicidal efficacy against VIOTR", "setting": "[15]; dosage 80 g/ha", "result": 100}, {"measurement": "Herbicidal efficacy against VIOTR", "setting": "[15]; dosage 320 g/ha", "result": 100}, {"measurement": "herbicidal activity VIOTR", "setting": "[15]; [21]", "result": 100, "unit": "%"}, {"measurement": "Herbicidal efficacy against POLCO", "setting": "[16]; dosage 80 g/ha", "result": 80}, {"measurement": "Herbicidal efficacy against POLCO", "setting": "[16]; dosage 320 g/ha", "result": 90}, {"measurement": "Herbicidal efficacy against ECHCG", "setting": "[17]; 20 g/ha", "result": 90}, {"measurement": "Herbicidal efficacy against ECHCG", "setting": "[17]; 80 g/ha", "result": 100}, {"measurement": "Herbicidal efficacy against ECHCG", "setting": "[17]; 320 g/ha", "result": 100}, {"measurement": "Herbicidal efficacy against ABUTH", "setting": "[18]; dosage 20 g/ha", "result": 100}, {"measurement": "Herbicidal efficacy against ABUTH", "setting": "[18]; dosage 80 g/ha", "result": 100}, {"measurement": "Herbicidal efficacy against ABUTH", "setting": "[18]; dosage 320 g/ha", "result": 100}, {"measurement": "herbicidal activity ABUTH", "setting": "[18]; [21]", "result": 100, "unit": "%"}, {"measurement": "herbicidal activity ABUTH", "setting": "[19]", "result": 100, "unit": "%"}, {"measurement": "Herbicidal efficacy against AVEFA", "setting": "[20]; 80 g/ha", "result": 90}, {"measurement": "Herbicidal efficacy against AVEFA", "setting": "[20]; 320 g/ha", "result": 100}, {"measurement": "herbicidal activity AVEFA", "setting": "[20]; [21]", "result": 100, "unit": "%"}]}]}
